Laboratory results published in patent US6914045B2, “Glycopeptide antibiotics” (Wyeth Holdings Corporation, priority 2001, dated 2005).
In brackets after ≈: the same amount, converted by molar mass. Blank lines part the entries; values can stand above or below the compound they belong to.

What was measured:
Test in all cases: in vitro antibacterial evaluation, MIC by broth dilution
Type in all cases: cell-based
Escherichia coli = details: 18 hours at 35° C.
In short: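 Broth dilution MIC per NCCLS M7-A2 in Mueller-Hinton II medium, inoculum 5×10^5 CFU/mL, antibiotic range 64-0.06 μg/mL. MIC taken as lowest concentration inhibiting growth.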

Enterococcus sp. = details: broth dilution, 18 hours at 35° C.
In short: (§1)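 Broth dilution per NCCLS M7-A2 in Mueller-Hinton II medium, inoculum 5×10^5 CFU/mL, antibiotic range 64-0.06 μg/mL. MIC taken as lowest concentration inhibiting growth; Gram-positive panel includes recent clinical isolates resistant to methicillin, penicillin and/or vancomycin.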

Streptococcus sp. = details: broth dilution, 18 hours at 35° C.
In short: as §1

Staphylococcus sp. = details: broth dilution, 18 hours at 35° C.; for MIC Staphylococcus aureus (ATCC 29213): strain ATCC 29213; for MIC Staphylococcus aureus (GC 1131): strain GC 1131; for MIC Staphylococcus aureus (GC 3051): strain GC 3051; for MIC Staphylococcus aureus (GC 3053): strain GC 3053; for MIC Staphylococcus aureus (GC 4541): strain GC 4541; for MIC Staphylococcus aureus (GC 4542): strain GC 4542; for MIC Staphylococcus aureus (GC 4544): strain GC 4544; for MIC Staphylococcus aureus (GC 4545): strain GC 4545
In short: as §1

[1] = Enterococcus faecalis (ATCC 29212)
[2] = Enterococcus faecalis (GC 4552)
[3] = Enterococcus faecalis (GC 4553)
[4] = Enterococcus faecalis (GC 4554)
[5] = Enterococcus faecalis (GC 6189)

MIC Escherichia coli (ATCC 25922) (Escherichia coli): >128 µg/mL
MIC Escherichia coli (GC 4559) (Escherichia coli): >128 µg/mL
MIC Escherichia coli (GC 4560) (Escherichia coli): 16 µg/mL (≈ 9.34 µM)
MIC Enterococcus avium (GC 4558) (Enterococcus sp.; Enterococcus avium (GC 4558)): 128 µg/mL (≈ 74.7 µM)
MIC Enterococcus faecalis (ATCC 29212) (Enterococcus sp.; [1]): >128 µg/mL
MIC Enterococcus faecalis (GC 4552) (Enterococcus sp.; [2]): >128 µg/mL
MIC Enterococcus faecalis (GC 4553) (Enterococcus sp.; [3]): >128 µg/mL
MIC Enterococcus faecalis (GC 4554) (Enterococcus sp.; [4]): >128 µg/mL
MIC Enterococcus faecalis (GC 6189) (Enterococcus sp.; [5]): >128 µg/mL
MIC Enterococcus faecium (GC 2243) (Enterococcus sp.; Enterococcus faecium (GC 2243)): >128 µg/mL
MIC Enterococcus faecium (GC 4556) (Enterococcus sp.; Enterococcus faecium (GC 4556)): >128 µg/mL
MIC Enterococcus faecium (GC 4557) (Enterococcus sp.; Enterococcus faecium (GC 4557)): 128 µg/mL (≈ 74.7 µM)
MIC Enterococcus avium (GC 4558) (Enterococcus sp.): 128 µg/mL (≈ 74.7 µM)
MIC Enterococcus faecalis (ATCC 29212) (Enterococcus sp.): >128 µg/mL
MIC Enterococcus faecalis (GC 2242) (Enterococcus sp.): >128 µg/mL
MIC Enterococcus faecalis (GC 2691) (Enterococcus sp.): >128 µg/mL
MIC Enterococcus faecalis (GC 3059) (Enterococcus sp.): >128 µg/mL
MIC Enterococcus faecalis (GC 4552) (Enterococcus sp.): >128 µg/mL
MIC Enterococcus faecalis (GC 4553) (Enterococcus sp.): >128 µg/mL
MIC Enterococcus faecalis (GC 4554) (Enterococcus sp.): >128 µg/mL
MIC Enterococcus faecalis (GC 6189) (Enterococcus sp.): >128 µg/mL
MIC Enterococcus faecium (GC 2243) (Enterococcus sp.): >128 µg/mL
MIC Enterococcus faecium (GC 4556) (Enterococcus sp.): >128 µg/mL
MIC Enterococcus faecium (GC 4557) (Enterococcus sp.): 128 µg/mL (≈ 74.7 µM)
MIC Enterococcus faecalis (GC 2242) (Enterococcus sp.; strain GC 2242): >128 µg/mL
MIC Enterococcus faecalis (GC 2691) (Enterococcus sp.; strain GC 2691): >128 µg/mL
MIC Enterococcus faecalis (GC 3059) (Enterococcus sp.; strain GC 3059): >128 µg/mL
MIC Streptococcus agalactiae (GC 4564) (Streptococcus sp.): >128 µg/mL
MIC Streptococcus pneumoniae (ATCC 6301) (Streptococcus sp.): 128 µg/mL (≈ 74.7 µM)
MIC Streptococcus pneumoniae (GC 1894) (Streptococcus sp.): 64 µg/mL (≈ 37.3 µM)
MIC Streptococcus pneumoniae (GC 4565) (Streptococcus sp.): 128 µg/mL (≈ 74.7 µM)
MIC Streptococcus pyogenes (GC 4563) (Streptococcus sp.): >128 µg/mL
MIC Streptococcus pneumoniae (ATCC 6301) (Streptococcus sp.; strain ATCC 6301): 128 µg/mL (≈ 74.7 µM)
MIC Streptococcus pneumoniae (GC 1894) (Streptococcus sp.; strain GC 1894): 64 µg/mL (≈ 37.3 µM)
MIC Streptococcus pyogenes (GC 4563) (Streptococcus sp.; strain GC 4563): >128 µg/mL
MIC Streptococcus agalactiae (GC 4564) (Streptococcus sp.; strain GC 4564): >128 µg/mL
MIC Streptococcus pneumoniae (GC 4565) (Streptococcus sp.; strain GC 4565): 128 µg/mL (≈ 74.7 µM)
MIC Staphylococcus aureus (ATCC 29213) (Staphylococcus sp.): >128 µg/mL
MIC Staphylococcus aureus (GC 1131) (Staphylococcus sp.): >128 µg/mL
MIC Staphylococcus aureus (GC 3051) (Staphylococcus sp.): >128 µg/mL
MIC Staphylococcus aureus (GC 3053) (Staphylococcus sp.): >128 µg/mL
MIC Staphylococcus aureus (GC 4541) (Staphylococcus sp.): >128 µg/mL
MIC Staphylococcus aureus (GC 4542) (Staphylococcus sp.): >128 µg/mL
MIC Staphylococcus aureus-SMITH (GC 4543) (Staphylococcus sp.; strain GC 4543): >128 µg/mL
MIC Staphylococcus aureus (GC 4544) (Staphylococcus sp.): >128 µg/mL
MIC Staphylococcus aureus (GC 4545) (Staphylococcus sp.): >128 µg/mL
MIC Coagulase Negative Staphylococcus (GC 4547) (Staphylococcus sp.; strain GC 4547): >128 µg/mL
MIC Coagulase Negative Staphylococcus (GC 4548) (Staphylococcus sp.; strain GC 4548): >128 µg/mL
MIC Coagulase Negative Staphylococcus (GC 4549) (Staphylococcus sp.; strain GC 4549): >128 µg/mL
MIC Coagulase Negative Staphylococcus (GC 4551) (Staphylococcus sp.; strain GC 4551): >128 µg/mL
MIC Coagulase Negative Staphylococcus (GC 6257) (Staphylococcus sp.; strain GC 6257): >128 µg/mL
SMILES: CC(c1ccccc1)C1NC(=O)CNC(=O)C(CO)NC(=O)C(CC2CN(Cc3ccccc3)C(=NCc3ccccc3)N2C2OC(CO)C(O)C(O)C2O)NC(=O)C(CC2CN(Cc3ccccc3)C(=NCc3ccccc3)N2Cc2ccccc2)NC(=O)C(Cc2ccc(OC3OC(CO)C(OC4OC(CO)C(O)C(O)C4O)C(O)C3O)cc2)NC1=O (stereo not drawn) [Example 73, Cyclo[3-[1,3-benzyl-2-(benzylimino)imidazolidin-4-yl]alanyl-3-[1-benzyl-2-(benzylimino)-3-hexopyranosylimidazolidin-4-yl]alanylserylglycyl-β-methylphenylalanyl-O-(4-O-hexopyranosylhexopyranosyl)tyrosyl]]
MIC Staphylococcus haemolyticus (GC 4546) (Staphylococcus sp.; strain GC 4546): >128 µg/mL

MIC Escherichia coli (ATCC 25922) (Escherichia coli): >64 µg/mL
MIC Escherichia coli (GC 4559) (Escherichia coli): >64 µg/mL
MIC Escherichia coli (GC 4560) (Escherichia coli): 64 µg/mL (≈ 41 µM)
MIC Enterococcus avium (GC 4558) (Enterococcus sp.; Enterococcus avium (GC 4558)): >64 µg/mL
MIC Enterococcus faecalis (ATCC 29212) (Enterococcus sp.; [1]): >64 µg/mL
MIC Enterococcus faecalis (GC 4552) (Enterococcus sp.; [2]): >64 µg/mL
MIC Enterococcus faecalis (GC 4553) (Enterococcus sp.; [3]): >64 µg/mL
MIC Enterococcus faecalis (GC 4554) (Enterococcus sp.; [4]): >64 µg/mL
MIC Enterococcus faecalis (GC 6189) (Enterococcus sp.; [5]): >64 µg/mL
MIC Enterococcus faecium (GC 2243) (Enterococcus sp.; Enterococcus faecium (GC 2243)): >64 µg/mL
MIC Enterococcus faecium (GC 4556) (Enterococcus sp.; Enterococcus faecium (GC 4556)): >64 µg/mL
MIC Enterococcus faecium (GC 4557) (Enterococcus sp.; Enterococcus faecium (GC 4557)): >64 µg/mL
MIC Enterococcus avium (GC 4558) (Enterococcus sp.): >64 µg/mL
MIC Enterococcus faecalis (ATCC 29212) (Enterococcus sp.): >64 µg/mL
MIC Enterococcus faecalis (GC 2242) (Enterococcus sp.): >64 µg/mL
MIC Enterococcus faecalis (GC 2691) (Enterococcus sp.): >64 µg/mL
MIC Enterococcus faecalis (GC 3059) (Enterococcus sp.): >64 µg/mL
MIC Enterococcus faecalis (GC 4552) (Enterococcus sp.): >64 µg/mL
MIC Enterococcus faecalis (GC 4553) (Enterococcus sp.): >64 µg/mL
MIC Enterococcus faecalis (GC 4554) (Enterococcus sp.): >64 µg/mL
MIC Enterococcus faecalis (GC 6189) (Enterococcus sp.): >64 µg/mL
MIC Enterococcus faecium (GC 2243) (Enterococcus sp.): >64 µg/mL
MIC Enterococcus faecium (GC 4556) (Enterococcus sp.): >64 µg/mL
MIC Enterococcus faecium (GC 4557) (Enterococcus sp.): >64 µg/mL
MIC Enterococcus faecalis (GC 2242) (Enterococcus sp.; strain GC 2242): >64 µg/mL
MIC Enterococcus faecalis (GC 2691) (Enterococcus sp.; strain GC 2691): >64 µg/mL
MIC Enterococcus faecalis (GC 3059) (Enterococcus sp.; strain GC 3059): >64 µg/mL
MIC Streptococcus agalactiae (GC 4564) (Streptococcus sp.): >64 µg/mL
MIC Streptococcus pneumoniae (ATCC 6301) (Streptococcus sp.): >64 µg/mL
MIC Streptococcus pneumoniae (GC 1894) (Streptococcus sp.): >64 µg/mL
MIC Streptococcus pneumoniae (GC 4565) (Streptococcus sp.): >64 µg/mL
MIC Streptococcus pyogenes (GC 4563) (Streptococcus sp.): >64 µg/mL
MIC Streptococcus pneumoniae (ATCC 6301) (Streptococcus sp.; strain ATCC 6301): >64 µg/mL
MIC Streptococcus pneumoniae (GC 1894) (Streptococcus sp.; strain GC 1894): >64 µg/mL
MIC Streptococcus pyogenes (GC 4563) (Streptococcus sp.; strain GC 4563): >64 µg/mL
MIC Streptococcus agalactiae (GC 4564) (Streptococcus sp.; strain GC 4564): >64 µg/mL
MIC Streptococcus pneumoniae (GC 4565) (Streptococcus sp.; strain GC 4565): >64 µg/mL
MIC Coagulase Negative Staphylococcus (GC 4547) (Staphylococcus sp.): >64 µg/mL
MIC Coagulase Negative Staphylococcus (GC 4548) (Staphylococcus sp.): >64 µg/mL
MIC Coagulase Negative Staphylococcus (GC 4549) (Staphylococcus sp.): >64 µg/mL
MIC Coagulase Negative Staphylococcus (GC 4551) (Staphylococcus sp.): >64 µg/mL
MIC Staphylococcus aureus-SMITH (GC 4543) (Staphylococcus sp.): >64 µg/mL
MIC Staphylococcus aureus (ATCC 29213) (Staphylococcus sp.): >64 µg/mL
MIC Staphylococcus aureus (GC 1131) (Staphylococcus sp.): >64 µg/mL
MIC Staphylococcus aureus (GC 3051) (Staphylococcus sp.): >64 µg/mL
MIC Staphylococcus aureus (GC 3053) (Staphylococcus sp.): >64 µg/mL
MIC Staphylococcus aureus (GC 4541) (Staphylococcus sp.): >64 µg/mL
MIC Staphylococcus aureus (GC 4542) (Staphylococcus sp.): >64 µg/mL
MIC Staphylococcus aureus-SMITH (GC 4543) (Staphylococcus sp.; strain GC 4543): >64 µg/mL
MIC Staphylococcus aureus (GC 4544) (Staphylococcus sp.): >64 µg/mL
MIC Staphylococcus aureus (GC 4545) (Staphylococcus sp.): >64 µg/mL
MIC Coagulase Negative Staphylococcus (GC 4547) (Staphylococcus sp.; strain GC 4547): >64 µg/mL
MIC Coagulase Negative Staphylococcus (GC 4548) (Staphylococcus sp.; strain GC 4548): >64 µg/mL
MIC Coagulase Negative Staphylococcus (GC 4549) (Staphylococcus sp.; strain GC 4549): >64 µg/mL
MIC Coagulase Negative Staphylococcus (GC 4551) (Staphylococcus sp.; strain GC 4551): >64 µg/mL
SMILES: CC(c1ccccc1)C1NC(=O)CNC(=O)C(CO)NC(=O)C(C(O)C2CN(c3nc4ccccc4s3)C(=N)N2C2OC(CO)C(O)C(O)C2O)NC(=O)C(C(O)C2CNC(=Nc3nc4ccccc4s3)N2)NC(=O)C(Cc2ccc(OC3OC(CO)C(OC4OC(CO)C(O)C(O)C4O)C(O)C3O)cc2)NC1=O (stereo not drawn) [Example 94, Cyclo[glycyl-β-methylphenylalanyl-O-(4-O-hexopyranosylhexopyranosyl)tyrosyl-3-[2-(1,3-benzothiazol-2-ylimino)imidazolidin-4-yl]seryl-3-[1-(1,3-benzo-thiazol-2-yl)-2-imino-3-hexopyranosylimidazolidin-4-yl]serylseryl]]
MIC Staphylococcus haemolyticus (GC 4546) (Staphylococcus sp.): >64 µg/mL
MIC Staphylococcus haemolyticus (GC 4546) (Staphylococcus sp.; strain GC 4546): >64 µg/mL
